Experimental data taken from paper PMC4317638 (Emerging Microbes & Infections, 2014).
Read-outs that look alike come from different tables or passages of the source.

Experiments:
[1] = system: Ebola VLP entry into HeLa cells; experiment: microbe, parasite or virus in culture; type: cell-based, Ebola virus; conditions: for IC90: read-out: Block Ebola VLP entry IC90; for Emax: read-out: Block Ebola VLP entry Max. Inh.
Ebola virus infection [2] = conditions: cited from earlier work
Ebola virus infection [3] = conditions: in vivo; cited from earlier work
in vitro = conditions: human, Cytotoxicity IC50
[4] = read-out: Block Ebola VLP entry IC50
[5] = Zaire ebolavirus, HeLa, read-out: Block Ebola VLP entry IC50
[6] = Zaire ebolavirus, HeLa, read-out: IC50 of blocking Ebola VLP entry

CCN(CC)CCOc1ccc(C(=C(Cl)c2ccccc2)c2ccccc2)cc1 [Clomiphene]
IC90 ([1]; Zaire ebolavirus, HeLa): 5.34 µM
Emax ([1]; Zaire ebolavirus, HeLa): 92%
Block of Ebola virus infection (Ebola virus infection [2]): effectively block Ebola virus infection
Efficacy in a mouse infection model (Ebola virus infection [3]): effective in a mouse infection model
IC50 (in vitro): 91.4 µM

COc1cccc2c1C(=O)c1c(O)c3c(c(O)c1C2=O)C[C@@](O)(C(C)=O)C[C@@H]3O[C@H]1C[C@H](N)[C@H](O)[C@H](C)O1 [Daunorubicin]
Block Ebola VLP entry Max. Inh. [1]: 96%
Selectivity Index [1]: 103 fold
IC50 [1, 4]: 2.43 µM
IC90 [1]: 4.45 µM
IC50 (HeLa cells; human): 250 µM

C[C@H]1O[C@@H](O[C@H]2[C@@H](O)C[C@H](O[C@H]3[C@@H](O)C[C@H](O[C@H]4CC[C@@]5(C)[C@H](CC[C@@H]6[C@@H]5C[C@@H](O)[C@]5(C)[C@@H](C7=CC(=O)OC7)CC[C@]65O)C4)O[C@@H]3C)O[C@@H]2C)C[C@H](O)[C@@H]1O [Digoxin]
Selectivity Index [1]: 327 fold
IC50 [1, 5]: 0.763 µM
IC90 ([1]; Zaire ebolavirus, HeLa): 3.45 µM
Emax ([1]; Zaire ebolavirus, HeLa): 68%
IC50 [1, 6]: 0.76 µM
Cytotoxicity (HeLa cells): cytotoxicity at a compound concentration similar to that effective in blocking Ebola VLP entry
IC50 (in vitro): 250 µM

N=C(N)NN=C(/C=C/c1ccc([N+](=O)[O-])o1)/C=C/c1ccc([N+](=O)[O-])o1 [Nitrovin]
Block Ebola VLP entry Max. Inh. [1]: 95%
IC50 [1, 4]: 4.85 µM
IC90 [1]: 7.14 µM
IC50 (HeLa cells): > 500 µM

COC(=O)Nc1nc2ccc(C(=O)c3cccs3)cc2[nH]1 [Nocodazole]
Selectivity Index [1]: >1242 fold
IC50 [1, 5]: 0.402 µM
IC90 ([1]; Zaire ebolavirus, HeLa): 1.04 µM
Emax ([1]; Zaire ebolavirus, HeLa): 87%
IC50 [1, 6]: 0.4 µM
IC50 (in vitro): > 500 µM

CCCOc1ccc2nc(NC(=O)OC)[nH]c2c1 [Oxibendazole]
Selectivity Index [1]: >291 fold
IC50 [1, 5]: 1.72 µM
IC90 ([1]; Zaire ebolavirus, HeLa): 3.75 µM
Emax ([1]; Zaire ebolavirus, HeLa): 57%
IC50 (in vitro): > 500 µM

CC(=O)c1ccc2c(c1)N(CCCN1CCC(CCO)CC1)c1ccccc1S2 [Piperacetazine]
Selectivity Index [1]: >52 fold
IC50 [1, 5]: 9.68 µM
IC90 ([1]; Zaire ebolavirus, HeLa): 18.1 µM
Emax ([1]; Zaire ebolavirus, HeLa): 90%
IC50 (in vitro): > 500 µM

CC[C@@H]([C@H](C)O)n1ncn(-c2ccc(N3CCN(c4ccc(OC[C@@H]5CO[C@@](Cn6cncn6)(c6ccc(F)cc6F)C5)cc4)CC3)cc2)c1=O [Posaconazole]
Selectivity Index [1]: >65 fold
IC50 [1, 5]: 7.69 µM
IC90 ([1]; Zaire ebolavirus, HeLa): 8.33 µM
Emax ([1]; Zaire ebolavirus, HeLa): 77%
IC50 (in vitro): > 500 µM

CCCN(CCC)C(=O)C(CCC(=O)OCCCN1CCN(CCOC(=O)Cc2c(C)n(C(=O)c3ccc(Cl)cc3)c3ccc(OC)cc23)CC1)NC(=O)c1ccccc1 (stereo not drawn) [Proglumetacin]
Selectivity Index [1]: >73 fold
IC50 [1, 5]: 6.85 µM
IC90 ([1]; Zaire ebolavirus, HeLa): 17.3 µM
Emax ([1]; Zaire ebolavirus, HeLa): 93%
IC50 (in vitro): > 500 µM

CCCNCC(O)COc1ccccc1C(=O)CCc1ccccc1 (stereo not drawn) [Propafenone]
Selectivity Index [1]: >80 fold
IC50 [1, 5]: 6.25 µM
IC90 ([1]; Zaire ebolavirus, HeLa): 23.8 µM
Emax ([1]; Zaire ebolavirus, HeLa): 100%
IC50 [1, 6]: 6.2 µM
IC50 (in vitro): > 500 µM

O=C(c1ccc(OCCN2CCCCC2)cc1)c1c(-c2ccc(O)cc2)sc2cc(O)ccc12 [Raloxifene/Evista, Raloxifene]
Selectivity Index [1]: >271 fold
IC50 [1, 5]: 1.84 µM
IC90 ([1]; Zaire ebolavirus, HeLa): 9.01 µM
Emax ([1]; Zaire ebolavirus, HeLa): 100%
IC50 [1, 6]: 1.8 µM
IC50 (in vitro): > 500 µM

OCc1cc(C(O)CNCCCCCCOCCCCc2ccccc2)ccc1O (stereo not drawn) [Salmeterol]
Selectivity Index [1]: >52 fold
IC50 [1, 5]: 9.68 µM
IC90 ([1]; Zaire ebolavirus, HeLa): 13 µM
Emax ([1]; Zaire ebolavirus, HeLa): 90%
IC50 (in vitro): > 500 µM

CCN(CC)CCNC(=O)c1c(C)[nH]c(/C=C2\C(=O)Nc3ccc(F)cc32)c1C [Sunitinib]
Selectivity Index [1]: 77 fold
IC50 [1, 5]: 1.91 µM
IC90 ([1]; Zaire ebolavirus, HeLa): 3.82 µM
Emax ([1]; Zaire ebolavirus, HeLa): 90%
IC50 (in vitro): 148 µM

CC/C(=C(\c1ccccc1)c1ccc(OCCN(C)C)cc1)c1ccccc1 [Tamoxifen]
IC90 ([1]; Zaire ebolavirus, HeLa): 3.15 µM
Emax ([1]; Zaire ebolavirus, HeLa): 97%
IC50 (in vitro): 99.8 µM

CN1CCN(CCCN2c3ccccc3Sc3ccc(S(=O)(=O)N(C)C)cc32)CC1 [Thioproperazine]
IC50 [1, 5]: 4.32 µM
IC90 ([1]; Zaire ebolavirus, HeLa): 12.5 µM
Emax ([1]; Zaire ebolavirus, HeLa): 103%
IC50 (in vitro): > 500 µM

CN1CCN(CC/C=C2/c3ccccc3Sc3ccc(S(=O)(=O)N(C)C)cc32)CC1 [Thiothixene]
Selectivity Index [1]: 36 fold
IC50 [1, 5]: 1.92 µM
IC90 ([1]; Zaire ebolavirus, HeLa): 7.18 µM
Emax ([1]; Zaire ebolavirus, HeLa): 100%
IC50 [1, 6]: 1.9 µM
IC50 (in vitro): 70.1 µM

CCN(CC)CCOc1ccc2c(c1)C(=O)c1cc(OCCN(CC)CC)ccc1-2 [Tilorone]
Selectivity Index [1]: >146 fold
IC50 [1, 5]: 3.43 µM
IC90 ([1]; Zaire ebolavirus, HeLa): 19 µM
Emax ([1]; Zaire ebolavirus, HeLa): 100%
IC50 (in vitro): > 500 µM

CC[C@@]1(O)C(=O)OCc2c1cc1n(c2=O)Cc2cc3c(CN(C)C)c(O)ccc3nc2-1 [Topotecan]
Selectivity Index [1]: >130 fold
IC50 [1, 5]: 3.85 µM
IC90 ([1]; Zaire ebolavirus, HeLa): 10.8 µM
Emax ([1]; Zaire ebolavirus, HeLa): 107%
IC50 (in vitro): > 500 µM

CN(C)CCOc1ccc(/C(=C(/CCCl)c2ccccc2)c2ccccc2)cc1 [Toremifene]
Selectivity Index [1]: 316 fold
IC50 [1, 5]: 0.566 µM
IC90 ([1]; Zaire ebolavirus, HeLa): 3.73 µM
Emax ([1]; Zaire ebolavirus, HeLa): 98%
IC50 [1, 6]: 0.56 µM
IC50 ([1]; read-out: IC50 of blocking Ebola VLP entry): 0.55 µM
Block of Ebola virus infection (Ebola virus infection [2]): effectively block Ebola virus infection
Efficacy in a mouse infection model (Ebola virus infection [3]): effective in a mouse infection model
IC50 (in vitro): 180 µM

CN1CCN(CCCN2c3ccccc3Sc3ccc(C(F)(F)F)cc32)CC1 [Trifluoperazine]
Selectivity Index [1]: 21 fold
IC50 [1, 5]: 4.48 µM
IC90 ([1]; Zaire ebolavirus, HeLa): 12 µM
Emax ([1]; Zaire ebolavirus, HeLa): 97%
IC50 [1, 6]: 4.4 µM
IC50 (HeLa cells; human): 97 µM

CC[C@]1(O)C[C@@H]2CN(CCc3c([nH]c4ccccc34)[C@@](C(=O)OC)(c3cc4c(cc3OC)N(C)[C@H]3[C@@](O)(C(=O)OC)[C@H](OC(C)=O)[C@]5(CC)C=CCN6CC[C@]43[C@@H]65)C2)C1 [Vinblastine]
Selectivity Index [1]: >10 324 fold
IC50 [1, 5]: 0.048 µM
IC90 ([1]; Zaire ebolavirus, HeLa): 0.13 µM
Emax ([1]; Zaire ebolavirus, HeLa): 87%
IC50 (in vitro): > 500 µM

CC[C@]1(O)C[C@H]2CN(CCc3c([nH]c4ccccc34)[C@@](C(=O)OC)(c3cc4c(cc3OC)N(C=O)[C@H]3[C@@](O)(C(=O)OC)[C@H](OC(C)=O)[C@]5(CC)C=CCN6CC[C@]43[C@@H]65)C2)C1 [Vincristine]
Selectivity Index [1]: >3554 fold
IC50 [1, 5]: 0.141 µM
IC90 ([1]; Zaire ebolavirus, HeLa): 0.258 µM
Emax ([1]; Zaire ebolavirus, HeLa): 83%
IC50 [1, 6]: 0.14 µM
IC50 (in vitro): > 500 µM

CCC1=C[C@@H]2CN(C1)Cc1c([nH]c3ccccc13)[C@@](C(=O)OC)(c1cc3c(cc1OC)N(C)[C@H]1[C@@](O)(C(=O)OC)[C@H](OC(C)=O)[C@]4(CC)C=CCN5CC[C@]31[C@@H]54)C2 [Vinorelbine/Navelbine, Vinorelbine]
Selectivity Index [1]: >7546 fold
IC50 [1, 5]: 0.066 µM
IC90 ([1]; Zaire ebolavirus, HeLa): 0.19 µM
Emax ([1]; Zaire ebolavirus, HeLa): 90%
IC50 (in vitro): > 500 µM

Spiramycin
Block Ebola VLP entry Max. Inh. [1]: 92%
IC90 [1]: 11.7 µM
IC50 (HeLa cells): > 500 µM
